Experimental findings from US20240246960A1 (adMare Therapeutics Society, priority 2021, published 2024) are described below.

Each structure is given as a SMILES string. Where two headings read alike, the source gives them in different places. A value given as a limit tells only on which side of the number the result lay.

The target in assay [1] is T1, DNA-PK phosphorylation at Serine 2056 (Homo sapiens, UniProt P78527).
T1 construct: host or cells: FaDu
Description: Cellular Assay for Inhibition of DNA-PK Phosphorylation at Serine 2056 (FaDu cells, neocarzinostatin, sandwich ELISA). Format: cell-based. To be noted: Table 1. The procedure, abridged: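 Readout was pSer2056 and total DNA-PK, measured by sandwich ELISA on protein-normalized lysates. Prior to lysis, compound was applied to FaDu cells for 1 h (0.3% DMSO), followed by 2 h of 1 μg/mL neocarzinostatin. IC50 values were fitted from log concentration versus % inhibition normalized to DMSO and NCS controls.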
For orientation: In an ELISA, binding on a coated surface is turned into a signal by an enzyme label.

Assay [2] deals with T2, DNA-PK (Homo sapiens, UniProt P78527).
T2 construct: purchased Invitrogen PR9107A
Nature of the assay: DNA-PK Assay for Biochemical Enzymatic Inhibition (ADP Glo Kinase assay). As to conditions: Table 1. On the procedure: A biochemical assay was performed to identify IC50 values against DNA-PK activity in a two-step reaction with a kinase reaction followed by ADP Glo™ Kinase assay Kit (Promega V9102).
Three-fold serial dilutions of compounds in DMSO were prepared in kinase assay buffer (50 mM HEPES pH 7.5, 20 mM MgCl2, 100 mM KCl, 50 μM DTT, 10 μg/ml calf thymus DNA, 0.01% Tween 20). Kinase assay buffer was used to prepare compound treatments to 0.02% DMSO (dimethyl sulphoxide) content. DMSO controls were prepared to produce a maximum and minimum luminescence signal for normalization. Substrate (Anaspec, AS-60210-5) and ATP (Promega V9102) and ATP mix was prepared by dilution in kinase assay buffer for 434.4 μM and 64.4 μM final assay concentrations, respectively. Compounds and control were added to 25 ng DNA-PK enzyme (Invitrogen, PR9107A) diluted in kinase buffer in assay plate (Corning 267459) and incubated for 15 minutes at room temperature prior to addition of substrate and ATP mix.
Throughout the assay, each time a reagent was added to the microplate, it was centrifuged for 1 minute at 1300 rcf. All reagents were added, and incubations carried out at room temperature. The reaction was then incubated for 60 minutes. ADP-ATP standards at 0, 4, 10, 40, 80, and 100% ADP (prepared as specified in the ADP Glo™ Kinase assay kit) were also added to the microplate at a volume equal to the total kinase reaction. The ADP Glo™ Kinase Assay kit was then used to quantify DNA-PK activity: following the 60-minute incubation, a 1:1 volume of ADP Glo reagent was added to all wells, then following a further 45-minute incubation, a 1:1 volume of Kinase Detection Reagent was added to all wells. After this two-step assay, plates were incubated in a Synergy-Neo2 plate reader for 30 minutes with gentle shaking, followed by endpoint luminescent read Luminescence data was normalized by subtracting the background signal and expressing all background-adjusted values as a percentage of the average maximum signal. The data was then expressed as percent inhibition by subtracting from 100% (i.e. maximum luminescent signal will be 0% inhibition) and the resulting data plotted against ten concentration points on a logarithmic scale, using GraphPad Prism. Non-linear regression analysis was performed on each concentration response curve and the log [inhibitor] vs response—variable slope (four parameters) equation was selected to generate IC50 values.
Background: ADP-Glo first removes unused ATP, then detects ADP through luciferase.

Assay [3] deals with T3, pDNA-PK ser2056 induction in HCT116 spheroids (Homo sapiens, UniProt P78527).
T3 construct: endogenous in cells; host or cells: HCT116 multicellular tumour spheroids
Description: Multicellular tumour spheroid + radiation, pDNA-PK inhibition, HCT116. As to conditions: 20 Gy. Format: cell-based. The procedure:
Multicellular tumour spheroids determination of compound inhibition of pDNA-PK induction following radiation. Tumour spheroids were grown to approximately 0.5 mm in diameter and irradiated with 20 Gy in combination with inhibitor test compounds to determine their potency. Inhibitor concentration for 50% reduction in pDNA-PK induction (IC50) was determined via immunohistochemical staining in spheroid cryosections taken 2 hours following radiation.
Spheroid, Cell Line: […], Immunohistochemical endpoint, pDNA-PK inhibition, EC50 in μm.
Spheroid+radiation pDNA-PK. Radiation: 20 Gy. Drug: serial dilution 5 or 10 μM down to 3.5 nM (11 wells). Spheroids: 3-6 spheroids per well (300-500 μm diameter). 20% O2 and 5% CO2. 96 well plate format.
Protocol: pre-incubate 1 hours with drug, irradiate with 20 Gy, post-incubate 2 hours with drug, freeze and cryosection ×3 replicates.
Endpoint: fluorescent immunostin pDNA-PK ser2056 and image on microscope.
Analysis: determine EC50 concentration that decreases pDNA-PK induction by 50% after radiation.
Multicellular tumour spheroids determination of compound inhibition of pDNA-PK induction following radiation. Tumour spheroids were grown to approximately 0.5 mm in diameter and irradiated with 20 Gy in combination with inhibitor test compounds to determine their potency. Inhibitor concentration for 50% reduction in pDNA-PK induction (IC50) was determined via immunohistochemical staining in spheroid cryosections taken 2 hours following radiation. For cell survival endpoint 8 Gy radiation was used and 3 hours following radiation spheroids were dissociated, counted and plated for colony forming endpoint.
Spheroid+radiation pDNA-PK. Radiation: 20 Gy. Drug: serial dilution 5 or 10 μM down to 3.5 nM (11 wells). Spheroids: 3-6 spheroids per well (300-500 μm diameter). 20% O2 and 5% CO2. 96 well plate format. Endpoint: fluorescent immunostain pDNA-PK ser2056 and image on microscope. Analysis: determine EC50 concentrations that decreases pDNA-PK induction […] after irradiation.
Multicellular tumour spheroids were used to determine potency of test compounds in a 3D tissue environment using inhibition of pDNA-PK induction following radiation or cell survival as the endpoint. For the pDNA-PK endpoint HCT116 or FaDU tumour spheroids were grown to approximately 0.5 mm in diameter and irradiated with 20 Gy in combination with inhibitor test compounds to determine their potency. Experiments were carried out in 96 well plates containing 0.7 mls of MEM media containing 10% FBS and 10 mM glucose under 20% O2 & 5% CO2 at 37° C. Following dilution of compounds 1:1000 from DMSO stocks, compounds were serially diluted from 10 μM down to 3.5 nM and 5-10 spheroids added. 96 well plates were constantly stirred to avoid spheroids settling during the course of the experiment. The inhibitor concentration for 50% reduction in pDNA-PK induction (EC50) was determined via immunohistochemical staining in spheroid cryosections taken 2 hours following radiation using anti-pDNA-PK (ser 2056) and fixed immediately in formalin following sectioning. For cell survival endpoint 8 Gy radiation was used and, 3 hours following radiation, spheroids were dissociated, counted and plated for colony forming endpoint. Data presented in the table compound potency as EC50 [μM].

[4] abbreviates: Example 7, spheroid, cell line HCT115 [sic], 20% O2, read-out: EC50 (pDNA-PK inhibition, immunohistochemical endpoint).
Where [5] appears, read: Example 8, spheroid, read-out: Cell line: HCT116 Immunohistochemical endpoint pDNA-PK inhibition EC50.
Where [6] appears, read: Example 9 Study 2, 20% O2, read-out: Spheroid Cell line: HCT116 Immunohistochemical endpoint pDNA-PK inhibition EC50.

The term IC50 denotes the concentration that gives 50% inhibition. The EC50 is the midpoint of the concentration-response curve. In the case of `Cc1cn([C@H]2CC[C@@H](Oc3nc(N4CCOCC4)cc4ncccc34)CC2)nc1C(F)(F)F` [Compound 17e, 4-(5-(((1s,4s)-4-(4-methyl-3-(trifluoromethyl)-1H-pyrazol-1-yl)cyclohexyl)oxy)-1,6-naphthyridin-7-yl)morpholine], the IC50 lay in the range of 100 to 1000 nM in assay [1] and 1 to 10 nM in assay [2]. For the same compound, the EC50 in assay [3] (setting [4]) and in assay [3] (setting [5]) was 1000 to 10000 nM in each case.

On to `Cc1cnn([C@H]2CC[C@@H](Oc3nc(N4CCOCC4)cc4ncccc34)CC2)c1C(F)(F)F` [Compound 17f, 4-(5-(((1s,4s)-4-(4-methyl-5-(trifluoromethyl)-1H-pyrazol-1-yl)cyclohexyl)oxy)-1,6-naphthyridin-7-yl)morpholine], for which the IC50 in assay [1] is 10000 to 30000 nM; in assay [2] it was 1 to 10 nM. Also, the EC50 in assay [3] (setting [4]) and in assay [3] (setting [5]) was 10000 to 100000 nM in each case.

With `CCS(=O)(=O)Nc1cnc2cc(N3CCOCC3)nc(O[C@H]3CC[C@@H](Nc4ncccn4)CC3)c2c1` [Compound 188, N-(7-morpholino-5-(((1s,4s)-4-(pyrimidin-2-ylamino)cyclohexyl)oxy)-1,6-naphthyridin-3-yl)ethanesulfonamide], the IC50 in assay [1] is 100 to 1000 nM; in assay [2], < 0.5 nM. The 50% effective concentration (EC50) in assay [3] (setting [4]) and in assay [3] (setting [6]) was 1000 to 10000 nM each time.

As for `Ic1cnc(N[C@H]2CC[C@@H](Oc3nc(N4CCOCC4)cc4ncccc34)CC2)nc1` [Compound 42, 5-iodo-N-((1s,4s)-4-((7-morpholino-1,6-naphthyridin-5-yl)oxy)cyclohexyl)pyrimidin-2-amine], the IC50 in assay [1] lay in the range of 100 to 1000 nM; in assay [2], 0.5 to 1 nM. The EC50 in assay [3] (setting [4]) and in assay [3] (setting [6]) was 1000 to 10000 nM throughout.

On to `CC(C)c1cnc(N[C@H]2CC[C@@H](Oc3nc(N4CCOCC4)cc4ncccc34)CC2)nc1` [Compound 33, 5-isopropyl-N-((1s,4s)-4-((7-morpholino-1,6-naphthyridin-5-yl)oxy)cyclohexyl)pyrimidin-2-amine], for which the IC50 was < 100 nM in assay [1] and 1 to 10 nM in assay [2]. Moreover, the EC50 in assay [3] (setting [4]) and in assay [3] (setting [6]) was 1000 to 10000 nM each time.

As to `O=C(N[C@H]1CC[C@@H](Oc2nc(N3CCOCC3)cc3ncccc23)CC1)c1ccccc1` [Compound 110, N-((1s,4s)-4-((7-Morpholino-1,6-naphthyridin-5-yl)oxy)cyclohexyl)benzamide], the concentration for half-maximal inhibition (IC50) in assay [1] is < 100 nM; in assay [2], < 0.5 nM. Also, the EC50 in assay [3] (setting [4]), in assay [3] (setting [5]) and in assay [3] (setting [6]) was 1000 to 10000 nM throughout.

On to `Fc1cnc(N[C@H]2CC[C@@H](Oc3nc(N4CCOCC4)cc4ncccc34)CC2)nc1` [Compound 40, 5-fluoro-N-((1s,4s)-4-((7-morpholino-1,6-naphthyridin-5-yl)oxy)cyclohexyl)pyrimidin-2-amine], for which the figures for the IC50 in assay [1] and in assay [2] were 100 to 1000 nM and < 0.5 nM, respectively. Besides, the EC50 in assay [3] (setting [4]) and in assay [3] (setting [6]) was 1000 to 10000 nM in each case.

In the case of `Cc1cc2ncnn2cc1N[C@H]1CC[C@@H](Oc2nc(N3CCOCC3)cc3ncccc23)CC1` [Compound 91, 7-Methyl-N-((1s,4s)-4-((7-morpholino-1,6-naphthyridin-5-yl)oxy)cyclohexyl)-[1,2,4]triazolo[1,5-a]pyridin-6-amine], the IC50 was 1000 to 10000 nM in assay [1] and 1 to 10 nM in assay [2]. For the same compound, the concentration for a half-maximal effect (EC50) in assay [3] (setting [4]) and in assay [3] (setting [6]) was 10000 to 100000 nM each time.

As for `Cc1nccnc1N[C@H]1CC[C@@H](Oc2nc(N3CCOCC3)cc3ncccc23)CC1` [Compound 36, 3-methyl-N-((1s,4s)-4-((7-morpholino-1,6-naphthyridin-5-yl)oxy)cyclohexyl)pyrazin-2-amine], the results for the IC50 in assay [1] and in assay [2] were 100 to 1000 nM and 0.5 to 1 nM, respectively. For the same compound, the EC50 in assay [3] (setting [4]) and in assay [3] (setting [6]) was 1000 to 10000 nM in each case.

For the compound `O=C(N[C@H]1CC[C@@H](Oc2nc(N3CCOCC3)cc3ncccc23)CC1)C1CCCO1` (stereo partly shown) [Compound 134, N-((1s,4s)-4-((7-Morpholino-1,6-naphthyridin-5-yl)oxy)cyclohexyl)tetrahydrofuran-2-carboxamide], the IC50 was in the range of 1000 to 10000 nM in assay [1] and 1 to 10 nM in assay [2]. Also, the half-maximal effective concentration (EC50) in assay [3] (setting [4]), in assay [3] (setting [5]) and in assay [3] (setting [6]) was 10000 to 100000 nM each time.

In the case of `CCOCCOc1cnc(N[C@H]2CC[C@@H](Oc3nc(N4CCOCC4)cc4ncc(Br)cc34)CC2)nc1` [Compound 18b, N-((1s,4s)-4-((3-Bromo-7-morpholino-1,6-naphthyridin-5-yl)oxy)cyclohexyl)-5-(2-ethoxyethoxy)pyrimidin-2-amine], the IC50 is 10000 to 30000 nM in assay [1] and 1 to 10 nM in assay [2]. Further, the EC50 in assay [3] (setting [4]), in assay [3] (setting [5]) and in assay [3] (setting [6]) was 1000 to 10000 nM in each case.

Consider `CCCS(=O)(=O)Nc1cnc2cc(N3CCOCC3)nc(O[C@H]3CC[C@@H](Nc4ncccn4)CC3)c2c1` [Compound 189, N-(7-morpholino-5-(((1s,4s)-4-(pyrimidin-2-ylamino)cyclohexyl)oxy)-1,6-naphthyridin-3-yl)propane-1-sulfonamide], for which the results for the IC50 in assay [1] and in assay [2] were 1000 to 10000 nM and 1 to 10 nM, respectively. Also, the EC50 in assay [3] (setting [4]) and in assay [3] (setting [6]) was 10000 to 100000 nM each time.

In the case of `O=C(O)c1cnc(N[C@H]2CC[C@@H](Oc3nc(N4CCOCC4)cc4ncccc34)CC2)nc1` [Compound 51, 2-(((1s,4s)-4-((7-morpholino-1,6-naphthyridin-5-yl)oxy)cyclohexyl)amino)pyrimidine-5-carboxylic acid], the IC50 in assay [1] is 1000 to 10000 nM; in assay [2] it was < 0.5 nM. Further, the EC50 in assay [3] (setting [4]) and in assay [3] (setting [6]) was 500 to 1000 nM each time.
